Laboratory results: patent publication US20080031944A1, “Stabilization of lorazepam” (CIMA LABS INC., priority 2006, published 2008)

Assay: Stability of lorazepam with ODT excipients and coatings

In the case of `O=C1Nc2ccc(Cl)cc2C(c2ccccc2Cl)=NC1O` (centres unmarked) [lorazepam, 7-chloro-5-(2-chlorophenyl)-1,3-dihydro-3-hydroxy-2H-1,4-benzodiazepin-2-one], the stability when coated (lorazepam coated with EUDRAGIT® E-100) is reported as “unstable” and the “stability with ODT excipients” value (with mannitol and super disintegrants such as crosslinked PVP) is reported as “unstable”.
